Source: patent publication US11680060B2, “Bicycloheptane pyrrolidine orexin receptor agonists” (Merck Sharp & Dohme LLC, priority 2020, dated 2023)
pIC50: −log10 of the molar value.

Biological target: human OX2R (Homo sapiens (Human), UniProt O43614)
Test: IPOne (IP-1) assay in CHO cells expressing human OX2R
Assay type: cell-based
Conditions: for Emax: CHO, percentage of mean max effect of a reference compound at 1 uM (100% activity by comparison to Orexin A), human OX2R, read-out: Emax (%); for pIC50: CHO cells expressing human OX2R, IP-One detection, 2 hours incubation, EC50 = inflection point of four parameter logistic fit, read-out: hOX2R_IP_IC50
Excerpt: The utility of the compounds in accordance with the present invention as orexin receptor OX1R and/or OX2R agonists may be readily determined without undue experimentation by methodology well known in the art. Both the OX1R and/or OX2R G-coupled protein receptors (GPCRs) couple through the Gαq signaling pathway, which ultimately promotes calcium mobilization via inositol triphosphate (IP3) production. The half-life of IP-3 is relatively short, being rapidly metabolized to inositol monophosphate (IP-1), which can be readily detected using a commercially available assay kit (IP-One; Cisbio; cat #621PAPEC) coupled with a cell line expressing the target receptor(s) of interest. The utility of the compounds in accordance with the present invention as orexin receptor OX1R and/or OX2R agonists may be determined utilizing this assay.
In a typical experiment, the OX1 and OX2 receptor agonist activity is determined in accordance with the following general experimental method. Chinese hamster ovary (CHO) cells expressing human OX1R and/or the human OX2R were grown in Iscove's modified DMEM containing glutaMAX™, 1% G418, 100 U/mL penicillin, 100 μg/mL streptomycin and 10% heat-inactivated qualified fetal bovine serum (FBS). The OX2R cells were seeded at 10,000 cells/well/50 μL and the OX1R cells were seeded at 20,000 cells/well/50 μL into 384-well white tissue culture plates (Greiner; cat #781080). All cell/media reagents were from GIBCO-Invitrogen Corp. The seeded cell plate(s) were incubated at 37° C. with 5% CO2 and 85% humidity for 20-24 hours. On the day of the assay, assay-ready compound plates were prepared using an acoustic liquid handler (ECHO; Labcyte), which dispensed sufficient volume of test compound stock (10 mM in DMSO) or 100% DMSO to prepare 10 point, ½-log dilutions in a final volume of 202.5 nL/well in all test wells of a 384-well diamond plate (Labcyte). Following completion of assay-ready plates, importantly, the next three steps were performed with minimal delay: 1) 20 μl of 1× stimulation buffer was added to the compound plate using a Multidrop Combi (small cassette, Thermo Fisher Scientific cat #24073290); 2) culture medium was removed from the cell plate using the Bluewasher plate washer (gentle spin; BlueCatBio); 3) 14 μl of compound/stimulation buffer mixture was added to the cell plate using a Bravo liquid handler (Agilent) prior to incubating cell plates at 37° C. with 5% CO2 and 85% humidity for 1 or 2 hours (OX1R and OX2R, respectively). During this incubation, IP-one detection reagents were prepared (38:1:1 lysis buffer:D2:AB-cryptate reagents). Six μL of mixed detection reagents were added to the cell plate using a Multidrop Combi (small cassette, Thermo Fisher Scientific cat #24073290) and incubated 60 minutes at room temperature in the dark. Fluorescence signal was detected using an Envision plate reader (Perkin Elmer) [LANCE/DELFIA Dual Enh (Em: APC 665; Ex: Cy5 620)].
For each compound, data were fit to a four parameter logistic fit (ActivityBase software) and the EC50 was reported as the inflection point of the resulting curve. Percent effect for each test compound was determined as the percentage of sample raw value/mean max effect, where the mean max effect was derived from the mean raw value of 32 control wells per assay plate (using Orexin A (cat #003-30) at 1 μM for human OX1R and a reference compound at 1 uM with 100% activity previously established by comparison to Orexin A for human OX2R). The intrinsic orexin receptor agonist activity of a compound which may be used in the present invention may be determined by these assays.

Chain of human OX2R (O43614 whole entry): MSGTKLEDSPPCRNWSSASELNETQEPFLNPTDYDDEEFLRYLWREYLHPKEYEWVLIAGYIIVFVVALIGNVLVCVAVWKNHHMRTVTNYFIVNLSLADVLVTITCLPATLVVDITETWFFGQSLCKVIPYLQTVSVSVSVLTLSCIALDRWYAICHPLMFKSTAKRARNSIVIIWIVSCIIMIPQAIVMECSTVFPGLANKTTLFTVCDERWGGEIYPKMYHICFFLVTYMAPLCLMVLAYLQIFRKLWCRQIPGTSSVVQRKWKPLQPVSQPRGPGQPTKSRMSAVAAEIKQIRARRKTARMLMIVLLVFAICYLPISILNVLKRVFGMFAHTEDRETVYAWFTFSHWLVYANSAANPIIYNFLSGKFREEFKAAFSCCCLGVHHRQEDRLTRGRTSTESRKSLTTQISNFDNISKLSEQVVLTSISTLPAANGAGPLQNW

Emax	pIC50	Structure (SMILES)
104%	–	CCC(C)S(=O)(=O)N[C@H]1C[C@@H](C)N(C(=O)OC)[C@H]1CO[C@H]1CC[C@@]2(c3ncc(F)cn3)C[C@H]2C1 (stereo partly drawn) [Example 41, methyl (2R,3S,5R)-2-((((1S,3S,6R)-6-(5-fluoropyrimidin-2-yl)bicyclo[4.1.0]heptan-3-yl)oxy)methyl)-5-methyl-3-((1-methylpropyl)sulfonamido)pyrrolidine-1-carboxylate]
103%	–	COC(=O)N1[C@H](C)C[C@H](NS(=O)(=O)CC(F)(F)F)[C@@H]1CO[C@H]1CC[C@@]2(c3ncc(F)cn3)C[C@H]2C1 [Example 32, methyl (2R,3S,5R)-2-((((1S,3S,6R)-6-(5-fluoropyrimidin-2-yl)bicyclo[4.1.0]heptan-3-yl)oxy)methyl)-5-methyl-3-((2,2,2-trifluoroethyl)sulfonamido)pyrrolidine-1-carboxylate]
99%	–	COC(=O)N1[C@H](C)C[C@H](NS(=O)(=O)N(C)C)[C@@H]1COC1CCC2(c3ccccn3)CC2C1 (stereo partly drawn) [Example 9, methyl (2R,3S,5R)-3-((N,N-dimethylsulfamoyl)amino)-5-methyl-2-(((6-(pyridin-2-yl)bicyclo[4.1.0]heptan-3-yl)oxy)methyl)pyrrolidine-1-carboxylate]
102%	8.80	CC(C)OC(=O)N1[C@H](C)C[C@H](NS(=O)(=O)N(C)C)[C@@H]1CO[C@@H]1CC[C@]2(c3ncc(F)cn3)C[C@@H]2C1 (single isomer, unassigned) [Example 160]
92.7%	–	COC(=O)N1[C@H](C)C[C@H](NS(=O)(=O)Cc2ccccc2)[C@@H]1CO[C@@H]1CC[C@]2(c3ncc(F)cn3)C[C@@H]2C1 [Example 45, methyl (2R,3S,5R)-2-((((1R,3R,6S)-6-(5-fluoropyrimidin-2-yl)bicyclo[4.1.0]heptan-3-yl)oxy)methyl)-5-methyl-3-((phenylmethyl)sulfonamido)pyrrolidine-1-carboxylate]
91.7%	–	COC(=O)N1[C@H](C)C[C@H](NS(C)(=O)=O)[C@@H]1COC1CCC2(c3ncc(Cl)c(C(F)(F)F)n3)CC2C1 (stereo partly drawn) [Example 72, methyl (2R,3S,5R)-2-(((6-(5-chloro-4-(trifluoromethyl)pyrimidin-2-yl)bicyclo[4.1.0]heptan-3-yl)oxy)methyl)-5-methyl-3-(methylsulfonamido)pyrrolidine-1-carboxylate]
100%	8.12	COC(=O)N1[C@H](C)C[C@H](NS(=O)(=O)CF)[C@@H]1CO[C@H]1CC[C@@]2(c3ncc(F)c(OC)n3)C[C@H]2C1 [Example 83, methyl (2R,3S,5R)-2-((((1S,3S,6R)-6-(5-fluoro-4-methoxypyrimidin-2-yl)bicyclo[4.1.0]heptan-3-yl)oxy)methyl)-3-((fluoromethyl)sulfonamido)-5-methylpyrrolidine-1-carboxylate]
57.9%	–	COC(=O)N1[C@H](C)C[C@H](NS(C)(=O)=O)[C@@H]1COC1CCC2(c3nc4c(F)ccc(F)c4s3)CC2C1 (stereo partly drawn) [Example 71, methyl (2R,3S,5R)-2-(((6-(4,7-difluorobenzo[d]thiazol-2-yl)bicyclo[4.1.0]heptan-3-yl)oxy)methyl)-5-methyl-3-(methylsulfonamido)pyrrolidine-1-carboxylate]
90.7%	–	COC(=O)N1[C@H](C)C[C@H](NS(C)(=O)=O)[C@@H]1COC1CCC2(c3ncc(F)c(C(F)F)n3)CC2C1 (stereo partly drawn) [Example 73, methyl (2R,3S,5R)-2-(((6-(4-(difluoromethyl)-5-fluoropyrimidin-2-yl)bicyclo[4.1.0]heptan-3-yl)oxy)methyl)-5-methyl-3-(methylsulfonamido)pyrrolidine-1-carboxylate]
95.4%	–	CC(C)OC(=O)N1[C@H](C)C[C@H](NS(=O)(=O)N(C)C)[C@@H]1COC1CCC2(c3ncccn3)CC2C1 (stereo partly drawn) [Example 174, isopropyl (2R,3S,5R)-3-((N,N-dimethylsulfamoyl)amino)-5-methyl-2-(((6-(pyrimidin-2-yl)bicyclo[4.1.0]heptan-3-yl)oxy)methyl)pyrrolidine-1-carboxylate]
99.5%	–	CC(C)OC(=O)N1[C@H](C)C[C@H](NS(=O)(=O)N(C)C)[C@@H]1CO[C@@H]1CC[C@]2(c3ncccn3)C[C@@H]2C1 [Example 170, isopropyl (2R,3S,5R)-3-((N,N-dimethylsulfamoyl)amino)-5-methyl-2-((((1R,3R,6S)-6-(pyrimidin-2-yl)bicyclo[4.1.0]heptan-3-yl)oxy)methyl)pyrrolidine-1-carboxylate]
103%	9.02	CC(C)OC(=O)N1CCC[C@H](NS(C)(=O)=O)[C@@H]1CO[C@H]1CC[C@@]2(c3ncc(F)cn3)C[C@H]2C1 (single isomer, unassigned) [Example 125]
99.9%	–	COC(=O)N1[C@H](C)C[C@H](NS(=O)(=O)N(C)C)[C@@H]1COC1CCC2(c3cccc(F)c3)CC2C1 (mixture of isomers) [Example 3, methyl (2R,3S,5R)-3-((N,N-dimethylsulfamoyl)amino)-2-(((6-(3-fluorophenyl)bicyclo[4.1.0]heptan-3-yl)oxy)methyl)-5-methylpyrrolidine-1-carboxylate]
102%	–	COC(=O)N1[C@H](C(F)F)C[C@H](NS(=O)(=O)C(C)C)[C@@H]1COC1CCC2(c3ncc(F)cn3)CC2C1 (stereo partly drawn) [Example 120, methyl (2R,3S,5S)-5-(difluoromethyl)-2-(((6-(5-fluoropyrimidin-2-yl)bicyclo[4.1.0]heptan-3-yl)oxy)methyl)-3-((1-methylethyl)sulfonamido)pyrrolidine-1-carboxylate]
100%	–	COC(=O)N1[C@@H]2CCC[C@@H]2[C@H](NS(=O)(=O)C2CC2)[C@@H]1COC1CCC2(c3ncc(F)cn3)CC2C1 (stereo partly drawn) [Example 128, methyl (2R,3S,3aS,6aR)-3-(cyclopropanesulfonamido)-2-(((6-(5-fluoropyrimidin-2-yl)bicyclo[4.1.0]heptan-3-yl)oxy)methyl)hexahydrocyclopenta[b]pyrrole-1(2H)-carboxylate]
101%	–	CC(C)OC(=O)N1[C@H](C)C[C@H](NS(=O)(=O)N(C)C)[C@@H]1CO[C@H]1CC[C@@]2(c3ncccn3)C[C@H]2C1 [Example 171, isopropyl (2R,3S,5R)-3-((N,N-dimethylsulfamoyl)amino)-5-methyl-2-((((1S,3S,6R)-6-(pyrimidin-2-yl)bicyclo[4.1.0]heptan-3-yl)oxy)methyl)pyrrolidine-1-carboxylate]
99.7%	–	COC(=O)N1[C@@H]2COC[C@@H]2C(NS(C)(=O)=O)[C@@H]1COC1CCC2(c3ncc(F)cn3)CC2C1 (mixture of isomers) [Example 134, Methyl (2R,3aS,6aS)-2-(((6-(5-fluoropyrimidin-2-yl)bicyclo[4.1.0]heptan-3-yl)oxy)methyl)-3-(methylsulfonamido)hexahydro-1H-furo[3,4-b]pyrrole-1-carboxylate]
98.5%	–	CC(C)OC(=O)N1[C@H](C)C[C@H](NS(=O)(=O)CF)[C@@H]1COC1CCC2(c3ncc(F)cn3)CC2C1 (stereo partly drawn) [Example 111, isopropyl (2R,3S,5R)-3-((fluoromethyl)sulfonamido)-2-(((6-(5-fluoropyrimidin-2-yl)bicyclo[4.1.0]heptan-3-yl)oxy)methyl)-5-methylpyrrolidine-1-carboxylate]
